Test results as given in patent US6399654B1, “Biflavanoids and derivatives thereof as antiviral agents” (priority 1995, dated 2002).
In brackets after ≈: the same amount, converted by molar mass. Like-named read-outs stand apart in the source and are kept apart here.

Experiments:
Adenovirus Type 5 [1] = assay: Adenovirus type 5 neutral red dye uptake in A549 cells; format: cell-based; conditions: Human mastadenovirus C, A549; Adenovirus Type 5; read-out: Neutral Red EC50
[2] = system: Parainfluenza Type 3 Virus; assay: organism not typed; format: cell-based; conditions: MA104; Parainfluenza Type 3 Virus; read-out: CPI Inhibition EC50
in vitro [3] = conditions: dog
[4] = system: Influenza A (H1N1) Texas/36/91; assay: microbe, parasite or virus in culture; format: cell-based, influenza A virus; conditions: Influenza A virus, MDCK; Influenza A (H1N1) Texas/36/91; read-out: CPE Inhibition EC50
HCMV = HCMV CPE inhibition in HFF cells
VZV = VZV plaque reduction assay in HFF cells
Measles Virus [5] = assay: microbe, parasite or virus in culture; format: cell-based; conditions: Measles morbillivirus, BSC-1; Measles Virus; read-out: CPI Inhibition EC50
in vitro [6] = conditions: African green monkey, Neutral Red IC50 (cytotoxic)
[7] = Cytotoxicity by neutral red dye uptake, A549 cells; conditions: human, A549 cells (toxicity control wells)
[8] = system: Influenza A (H1N1) Texas/36/91; assay: microbe, parasite or virus in culture; format: cell-based, influenza A virus; conditions: Influenza A virus, MDCK; Influenza A (H1N1) Texas/36/91; read-out: Neutral Red EC50
[9] = Cytotoxicity by neutral red dye uptake, MA-104 cells; conditions: African green monkey, MA-104 cells (toxicity control wells), Neutral Red IC50 (cytotoxic), Respiratory Syncytial Virus test
HSV-2 = HSV-2 CPE inhibition in HFF cells
Hepatitis B Virus (HBV) = assay: Inhibition of HBV replication in 2.2.15 cells, extracellular (virion) HBV DNA; conditions: Hepatitis B virus, 216 h;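 further: extracellular virion HBV DNA in culture medium measured by slot blot hybridization with a 32P-labeled HBV probe, quantified against HBV DNA standards, after 9 days of daily dosing, compared with day 0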
Method: Test compounds were added daily for a nine continuous day period; the culture medium was collected and stored for analysis of extracellular (virion) HBV DNA after 0, 3, 6, and 9 days of treatment. The treated cells were lysed 24 hours following day 9 of treatment for the analysis of intracellular HBV genomic forms. The overall levels of HBV DNA (both extracellular and intracellular DNA) and the relative rate of HBV replication (intracellular DNA) were analyzed quantitatively. The analysis was performed using blot hybridization techniques and [^32P]-labeled HBV-specific probes. The HBV DNA levels were measured by comparison to known amounts of HBV DNA standards applied to every nitrocellulose membrane (gel or slot blot). An AMBIS beta scanner, which measures the radioactive decay of the hybridized probes directly from the nitrocellulose membranes, was used for the quantitative analysis. Standard curves, generated by multiple analyses, were used to correlate CPM measurements made by the beta scanner with relative levels of target HBV DNA. The levels of HBV virion DNA released into the culture medium were analyzed by a slot blot hybridization procedure. HBV DNA levels were then compared to those at day 0 to determine the effect of the test compound. A known positive drug was evaluated in parallel with test compounds in each test.
Determination of therapeutic concentrations (EC50 and EC90) and toxicity concentrations (IC50) were determined as previously described (90). Stock solutions of text drugs were prepared in DMSO. Culture medium was changed daily and analyzed for extracellular HBV DNA after nine days of continuous drug exposure. Extracellular HBV DNA was extracted from the culture media and analyzed by a slot blot hydridization technique, using a ^32P-labeled Eco RI HBV DNA fragment, as previously described (91), and quantitated via comparison to HBV standards on a nitrocellulose filter, using an AMBIS beta scanner. Toxicity was determined by measuring inhibition of neutral red dye uptake. […] Effective concentration values for individual agents are the mean of six cultures per concentration point. Toxicity values are the mean of three cultures per concentration point.

Adenovirus Type 5 [10] = assay: microbe, parasite or virus in culture; format: cell-based; conditions: Human mastadenovirus C, A549, read-out: CPE Inhibition EC50
[11] = system: Influenza A (H3N2) Beijing/32/92; assay: microbe, parasite or virus in culture; format: cell-based, influenza A virus; conditions: Influenza A virus, MDCK; Influenza A (H3N2) Beijing/32/92; read-out: Neutral Red EC50
[12] = system: Influenza A (H3N2) Beijing/32/92; assay: microbe, parasite or virus in culture; format: cell-based, influenza A virus; conditions: Influenza A virus, MDCK; Influenza A (H3N2) Beijing/32/92; read-out: CPE Inhibition EC50
Influenza B Panama/45/90 = assay: microbe, parasite or virus in culture; format: cell-based; conditions: Influenza B virus, MDCK; Influenza B Panama/45/90; read-out: CPE Inhibition EC50
in vitro [13] = conditions: human
in vitro [14] = conditions: dog, Neutral Red IC50 (cytotoxic)
[15] = system: Parainfluenza Type 3 Virus; assay: organism not typed; format: cell-based; conditions: MA104, read-out: Neutral Red EC50
[16] = system: Madin Darby canine kidney (MDCK) cells; conditions: Influenza A (H3N2) test
HIV-1 (strain LAV-1) = assay: microbe, parasite or virus in culture; format: cell-based; conditions: Human immunodeficiency virus 1, PBMC, human PBM cells infected with HIV-1 (strain LAV); read-out: Ant-HIV-1 in PBM cells EC50
in vitro [17] = conditions: human; remark: listed apart in the source
Measles Virus [18] = assay: Measles virus neutral red dye uptake in BSC-1 cells; format: cell-based; conditions: Measles morbillivirus, BSC-1
HSV-1 = HSV-1 CPE inhibition in HFF cells
HIV-1 RT = biological target: T1, HIV-1 RT (Human immunodeficiency virus type 1 group M subtype B, UniProt P03366); assay: Anti-HIV-1 RT assay (recombinant enzyme); format: biochemical
T1 construct: made in house; host or cells: Escherichia coli

[19] = system: Respiratory Syncytial Virus; assay: microbe, parasite or virus in culture; format: cell-based; conditions: human respiratory syncytial virus, MA104; read-out: CPE Inhibition EC50
[20] = system: Respiratory Syncytial Virus; assay: microbe, parasite or virus in culture; format: cell-based; conditions: human respiratory syncytial virus, MA104; read-out: Neutral Red EC50
in vitro [21] = conditions: human; remark: listed apart in the source

With `O=c1cc(-c2ccc(O)c(-c3c(O)cc(O)c4c(=O)cc(-c5ccc(O)cc5)oc34)c2)oc2cc(O)cc(O)c12` [Amentoflavone (1), amentoflavone] the EC50 (Adenovirus Type 5 [1]) was > 100 mg/L, the EC50 [2] was > 100 mg/L and the IC50 (in vitro [3]; CPE Inhibition IC50 (50% cell inhibitory (cytotoxic) concentration), Influenza A (H1N1) test) was 22 mg/L (≈ 40.9 µM). The IC50 (in vitro [3]; CPE Inhibition IC50 (cytotoxic), Influenza A (H3N2) test) was > 100 mg/L, the IC50 (in vitro [3]; CPE Inhibition IC50 (cytotoxic), Influenza B test) was 100 mg/L (≈ 186 µM) and the EC50 [4] was 3.1 mg/L (≈ 5.76 µM). The “HCMV SI (CC50/EC50)” value (HCMV; HFF Cells) was >1.9, the EC50 (HCMV; Human betaherpesvirus 5, HFF, read-out: HCMV CPE Inhibition EC50) was 50.8 mg/L (≈ 94.3 µM) and the “VZV SI (CC50/EC50)” value (VZV; HFF Cells) was <2.3. For the same molecule, the EC50 (VZV; Human alphaherpesvirus 3, HFF, read-out: VZV Plaque Reduction EC50) was > 4 mg/L, the EC50 (Measles Virus [5]) was < 40 mg/L and the IC50 (in vitro [6]) was ~56 mg/L (≈ 104 µM). For the same molecule, the IC50 [7] was 74 mg/L (≈ 137 µM), the EC50 [8] was 5.3 mg/L (≈ 9.84 µM) and the IC50 [9] was ~35 mg/L (≈ 65 µM). The “HSV-2 SI (CC50/EC50)” value (HSV-2; HFF Cells) was >2.1, the EC50 (HSV-2; Human alphaherpesvirus 2, HFF, read-out: HSV-2 CPE Inhibition EC50) was 48 mg/L (≈ 89.1 µM) and the EC50 (Hepatitis B Virus (HBV); read-out: EC50 (50% effective dose), HBV Virion, 2.2.15 cells, extracellular (virion) HBV DNA, 9 days treatment) was > 100 µM. The EC90 (Hepatitis B Virus (HBV); read-out: EC90 (90% effective dose), HBV Virion, 2.2.15 cells, extracellular (virion) HBV DNA, 9 days treatment) was > 100 µM, the EC50 (Adenovirus Type 5 [10]) was > 100 mg/L and the EC50 [11] was 6.5 mg/L (≈ 12.1 µM). For the same molecule, the EC50 [12] was 4.3 mg/L (≈ 7.99 µM), the EC50 (Influenza B Panama/45/90) was 0.56 mg/L (≈ 1.04 µM) and the CC50 at 14 days (in vitro [13]; HCMV CPE Inhibition CC50) was > 100 mg/L. The CC50 at 3 days (in vitro [13]; HSV-1 CPE Inhibition CC50) was > 100 mg/L, the CC50 at 3 days (in vitro [13]; HSV-2 CPE Inhibition CC50) was > 100 mg/L and the CC50 at 10 days (in vitro [13]; VZV Plaque Reduction CC50) was 9.3 mg/L (≈ 17.3 µM). The IC50 (in vitro [14]; Influenza A (H1N1) test) was > 100 mg/L, the IC50 (in vitro [14]; Influenza A (H3N2) test) was > 100 mg/L and the EC50 [15] was ~32 mg/L (≈ 59.4 µM). The “CPE Inhibition IC50 (cytotoxic)” value [16] was >100 mg/L, the EC50 (HIV-1 (strain LAV-1)) was > 10.9 µM and the IC50 (in vitro [17]) was 18 mg/L (≈ 33.4 µM). For the same molecule, the EC50 (Measles Virus [18]) was < 20 mg/L, the “HSV-1 SI (CC50/EC50)” value (HSV-1; HFF Cells) was >5.6 and the EC50 (HSV-1; Human alphaherpesvirus 1, HFF, read-out: HSV-1 CPE Inhibition EC50) was 17.9 mg/L (≈ 33.2 µM). The IC50 (HIV-1 RT; Anti-HIV-1 RT IC50, values in parentheses or in words) was 119 µM, the IC50 (HIV-1 RT; HIV-1 RT IC50 (50% inhibition dose)) was 119 µM and the inhibition at 200 µg/mL (HIV-1 RT; read-out: Anti-HIV-1 RT % Inhibition at 200 μg/ml) was 97.3%. The EC50 [19] was ~10 mg/L (≈ 18.6 µM), the EC50 [20] was ~21 mg/L (≈ 39 µM) and the IC50 (in vitro [21]) was 35 µM.
